Experimental findings from patent publication US20160280651A1, “COMPOUNDS THAT INDUCE ABA RESPONSES” (THE REGENTS OF THE UNIVERSITY OF CALIFORNIA, priority 2013, published 2016) are described below.

The subject of test [1] is HAB1 with PYR/PYL receptors. Briefly: Receptor-mediated PP2C inhibition assay with HAB1, Example 1. Format: biochemical, Arabidopsis. Here is the method: (§1) FIG. 2A-FIG. 2C. Novel ABA agonists inhibit PPC2 activity through multiple PYR/PYL. (A) Chemical structure of naturally occurring (+)-ABA and selected ABA agonists. (B) and (C) HAB1, ABU, and ABI2 PP2C enzyme activity based ABA-agonist assays for various receptors in the presence or absence of 10 μM each test chemical.
(§2) FIG. 3A-FIG. 3B. (A) Receptor-mediated dose-dependent inhibition of PP2C enzyme activity by ABA agonists and analogs. (B) Observed compound IC50 values in enzymatic HAB1 PP2C-based ABA-agonist assays.
(§3) FIG. 4A-FIG. 4B. Quinabactin activates multiple ABA receptors. (A) Chemical structures of ABA, pyrabactin and quinabactin. (B) Chemical-dependent inhibition of HAB1 by ABA receptors. IC50 values (nM) were determined as described in the methods using 50 nM HAB1, 50 nM and multiple concentrations of compounds; full dose response curves are provided as in FIG. 3. (nd) correspond to receptors that were not produced as active proteins. The phylogenetic tree is a Neighbor-Joining tree made using the JTT distance matrix in MEGA5 (Tamura K, et al. (2011) MEGA5: Molecular Evolutionary Genetics Analysis Using Maximum Likelihood, Evolutionary Distance, and Maximum Parsimony Methods. Molecular Biology and Evolution 28(10):2731-2739).
(§4) HAB1 and PYL proteins were expressed and purified as described previously (Park S Y, et al. (2009) Abscisic Acid Inhibits Type 2C Protein Phosphatases via the PYR/PYL Family of START Proteins. Science 324(5930):1068-1071), with minor modifications. To obtain GST-HAB1, -ABI1 and -ABI2 fusion proteins, the HAB1 cDNA was cloned into pGex-2T whereas ABI1 and ABI2 cDNAs were cloned into the vector pGex-4T-1. Expression was conducted in BL21[DE3]pLysS host cells. Transformed cells were pre-cultured overnight, transferred to LB medium and cultured at 30° C. to culture A600 of ˜0.5. The culture was then cooled on ice and MnCl2 added to 4 mM and IPTG added to 0.3 mM. After 16 hours incubation at 15° C., cells were harvested and recombinant proteins were purified on glutathione agarose as described previously (Park S Y, et al. (2009). To obtain 6×His-PYL receptor fusion proteins, receptor cDNAs for all 13 ABA receptors were cloned into the vector pET28 and expressed and purified as described previously (Mosquna A, et al. (2011) Potent and selective activation of abscisic acid receptors in vivo by mutational stabilization of their agonist-bound conformation. PNAS 108(51):20838-20843); this yielded soluble and functional protein (assessed using receptor-mediated PP2C inhibition assays) for all receptors except PYL7, PYL11 and PYL12. These three receptors were therefore alternatively expressed as maltose binding (MBP) fusion proteins using the vector pMAL-c; expression of these constructs was carried out in BL21 [DE3]pLysS host strain with the same induction conditions used for GST-HAB1. Recombinant MBP-PYL fusion proteins were purified from sonicated and cleared lysate using amylose resin (New England Biolab, Inc.) using the manufacturers purification instructions. This effort yielded an active MBP-PYL11 fusion protein, but failed for PYL7 and PYL12.
(§5) PP2C activity assays using recombinant receptors and PP2Cs were carried out as follows: Purified proteins were pre-incubated in 80 μl assay buffer containing 10 mM MnCl2, 3 μg bovine serum albumin and 0.1% 2-mercaptoethanol with ABA or ABA agonist for 30 minutes at 22° C. Reactions were started by adding 20 μL of a reaction solution containing 156 mM Tris-OAc, pH 7.9, 330 mM KOAc and 5 mM 4-methylumbelliferyl phosphate after which fluorescence measurements were immediately collected using an excitation filter 355 nm and an emission filter 460 nm on a Wallac plate reader. Reactions contained 50 nM PP2C and 100 nM PYR/PYL proteins, respectively.

The subject of test [2] is GmNAC4 and GmbZIP1. Briefly: Quantitative RT-PCR of ABA-responsive genes in soybean. Format: in vivo. From the text:
FIG. 13A-FIG. 13E. LC66C6 modulates ABA responses in diverse species. Germination inhibition (A) and transpirational water loss in detached leaves 2-hours after detachment (B) in response to compounds shown. The expression of ABA-responsive marker genes in Soybean (C), Barley (D) and Maize (E) after application of chemicals. D, P, L and A indicate DMSO, pyrabactin, LC66C6 and (+)-ABA, respectively.
Total RNA was isolated using Plant RNA purification reagent (Invitrogen, USA) according to the manufacturer's instructions. cDNA was synthesized from 1 μg of total RNA using the QantiTec reverse transcription kit (Qiagen, USA). Real-time PCR using Maxima® SYBR Green/Fluorescein qPCR Master Mix (Fermentas) was performed with the iQ5 real-time PCR detection system (Bio-Rad, Hercules, Calif.). The relative amounts of target mRNAs were determined using the relative standard curve method and were normalized by relative amount of internal control mRNA. Biological triplicate experiments were performed.

For test [3], the target named is T1, HAB1 with PYR/PYL receptors (Arabidopsis thaliana, UniProt Q9FLB1).
T1 construct: 6xHis (N); made in house; host or cells: E. coli BL21[DE3]pLysS
T1 sequence (Q9FLB1 1-203): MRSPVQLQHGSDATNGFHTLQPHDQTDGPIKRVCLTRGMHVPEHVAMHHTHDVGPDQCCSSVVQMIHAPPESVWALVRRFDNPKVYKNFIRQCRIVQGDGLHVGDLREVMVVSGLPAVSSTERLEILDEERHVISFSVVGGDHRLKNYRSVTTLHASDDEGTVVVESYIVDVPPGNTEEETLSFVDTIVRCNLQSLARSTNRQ
T1 sequence (Q9CAJ0 1-511 partner): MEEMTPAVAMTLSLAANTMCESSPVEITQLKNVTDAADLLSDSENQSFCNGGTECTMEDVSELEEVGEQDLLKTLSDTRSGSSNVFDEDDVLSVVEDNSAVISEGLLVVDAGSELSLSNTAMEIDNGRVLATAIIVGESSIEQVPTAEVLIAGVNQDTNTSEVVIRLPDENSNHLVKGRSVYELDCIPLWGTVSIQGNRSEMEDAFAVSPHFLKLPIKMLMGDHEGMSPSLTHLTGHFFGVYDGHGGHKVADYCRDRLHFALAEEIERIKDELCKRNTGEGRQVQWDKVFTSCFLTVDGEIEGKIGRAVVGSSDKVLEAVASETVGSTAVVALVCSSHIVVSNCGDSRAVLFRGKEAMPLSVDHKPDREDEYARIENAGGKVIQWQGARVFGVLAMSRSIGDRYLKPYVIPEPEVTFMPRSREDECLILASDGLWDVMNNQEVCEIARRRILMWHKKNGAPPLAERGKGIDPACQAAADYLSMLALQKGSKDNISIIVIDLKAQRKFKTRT
In words: Receptor-mediated PP2C inhibition assay with HAB1, Example 1. It is filed as biochemical. Conditions: PYL5. The procedure: as §1, §2, §3, §4, §5

`CCCN1C(=O)CCc2cc(NS(=O)(=O)Cc3ccc(C)cc3)ccc21` [LC66C6]: the “PP2C inhibition of HAB1” value in test [1] (10 μM, receptors PYR1, PYL1, PYL2, PYL3 and PYL5) is > 70%. Besides, the “IC50 values of receptor activation” value in test [1] (PYR1, PYLs 1-3 and PYL5) is listed as “submicromolar”. Also, the “Agonist strength compared with ABA” value in test [1] (PYR1 or PYL1) is given as “stronger PYR1 or PYL1 agonist than ABA”. Besides, the “Maximal PP2C inhibition compared with pyrabactin” value in test [1] (all receptors tested) is listed as “higher than that observed with pyrabactin with all receptors tested”. Further, the “Expression of ABA-responsive genes GmNAC4 and GmbZIP1” value in test [2] is given as “strongly induces”.
In general, IC50 refers to the concentration needed to halve the response being measured. Turning to `O=S(=O)(NCc1ccccn1)c1ccc(Br)c2ccccc12` [pyrabactin, reference compound], the “PP2C inhibition at saturation” value in test [3] is ~40%. In addition, the IC50 in test [3] (read-out: IC50 of PYL5 activation) was found to be 900 nM.
